Laboratory results reported in patent US20040249122A1, “Cationic, amphipathic beta-sheet peptides and uses thereof” (priority 2003, published 2004).
Converted amounts (≈) assume the structure as drawn. “Also recorded” adds a separate entry of the source. Where a SMILES comes first, the peptide text is derived from it. The star is where a group is joined. Octanoyl = CCCCCCCC(=O)*

Legend:
[1] = tested on: Escherichia coli (ATCC 25922); format: cell-based; conditions: ATCC 25922
Experimental: (§1) Antimicrobial and Hemolytic Assays. Antimicrobial susceptibility testing against Staphylococcus aureus (ATCC 29213), Escherichia coli (ATCC 25922), and Pseudomonas aeruginosa (ATCC 27853) was performed using a modification of the National Committee for Clinical Laboratory Standards microdilution broth assay (22). Mueller-Hinton broth (BBL) was used for diluting the peptide stock solution and for diluting the bacterial inoculum. The inoculum was prepared from mid-logarithmic phase cultures. […] The final concentration of peptide solution ranged-from 0.25 to 256 μg/mL in two-fold dilutions. The final concentration of bacteria in the wells was 5×10^5 CFU/mL. Peptides were tested in duplicate. In addition to the test peptide, three standard peptides and a non-treated growth control were included to validate the assay. The microtiter plates were incubated overnight at 37° C. and the absorbance was measured at 600 nm. […] After incubation at 37° C. for 30 min, the suspension was centrifuged at 10,000×g for 10 min and the absorbance at 400 nm was measured.

[2] = tested on: Pseudomonas aeruginosa (ATCC 27853); format: cell-based; conditions: ATCC 27853
Experimental: as §1

[3] = tested on: Staphylococcus aureus (ATCC 29213); format: cell-based; conditions: ATCC 29213
Experimental: as §1

[4] = tested on: E. coli, S. aureus, and P. aeruginosa; format: cell-based
Experimental: Antimicrobial and Hemolytic Assays. Antimicrobial susceptibility testing against Staphylococcus aureus (ATCC 29213), Escherichia coli (ATCC 25922), and Pseudomonas aeruginosa (ATCC 27853) was performed using a modification of the National Committee for Clinical Laboratory Standards microdilution broth assay (22). Mueller-Hinton broth (BBL) was used for diluting the peptide stock solution and for diluting the bacterial inoculum. The inoculum was prepared from mid-logarithmic phase cultures. Microtiter plate wells received aliquots-of 100 μL each of the inoculum and peptide dilution. The final concentration of peptide solution ranged-from 0.25 to 256 μg/mL in two-fold dilutions. The final concentration of bacteria in the wells was 5×10^5 CFU/mL. Peptides were tested in duplicate. In addition to the test peptide, three standard peptides and a non-treated growth control were included to validate the assay. The microtiter plates were incubated overnight at 37° C. and the absorbance was measured at 600 nm. […] Hemolysis at peptide concentrations of 500 μg/mL was determined using a 5% suspension of freshly drawn human erythrocytes, which had been washed twice in phosphate buffered saline. After incubation at 37° C. for 30 min, the suspension was centrifuged at 10,000×g for 10 min and the absorbance at 400 nm was measured. Complete hemolysis was determined by adding 0.2% Triton X-100 in place of the peptide.

[5] = Peptide-induced leakage from calcein-loaded LUV
Experimental: Peptide-Induced Leakage from Calcein-Loaded LUV. The ability of the peptides to release calcein (MW 623) from LUV of varying lipid composition was compared. LUV were prepared as above, except that-the buffer consisted of 50 mM HEPES, 100 mM NaCl, 0.3 mM EDTA, 80 mM calcein, pH 7.4. Calcein-loaded vesicles were separated from free calcein by size-exclusion chromatography using a Sephadex G-50 column and calcein-free buffer. Calcein leakage was monitored using a Perkin-Elmer LS-500 luminescence spectrometer by measuring the time-dependent increase in fluorescence of calcein (excitation=490 nm, emission=520 nm). LUV containing 8 nmoles of lipid were added to 1.5 mL of buffer in a stirred cuvet at 25° C. An aliquot of peptide was added to achieve the desired lipid-to-peptide ratio (256 to 8). Complete leakage was determined by the addition of 20 μL of 10% Triton X-100. Each value represents at least nine different measurements using at least three different LUV preparations.

MIC E. coli [1] [µg/mL]	MIC Pseud. aerug [2] [µg/mL]	MIC Staph. aureus [3] [µg/mL]	MIC values [4] [µg/mL]	Structure (SMILES)	antimicrobial activity (in words) [4]	calcein leakage from LUV (in words) ([5]; LUVs from E. coli lipids)	calcein leakage from LUV (in words) ([5]; POPC (PC) LUV)
8 (≈ 3.75 µM)	32 (≈ 15 µM)	8 to 16	–	CC(C)C[C@H](NC(=O)CNC(=O)[C@H](CCCCN)NC(=O)[C@H](C)NC(=O)[C@H](CC(C)C)NC(=O)[C@H](CCCCN)NC(=O)[C@H](C)NC(=O)[C@H](CC(C)C)NC(=O)CNC(=O)[C@H](CCCCN)NC(=O)[C@H](C)NC(=O)[C@H](Cc1c[nH]c2ccccc12)NC(=O)[C@H](CCCCN)NC(=O)[C@H](C)NC(=O)[C@H](CC(C)C)NC(=O)CNC(=O)[C@H](CCCCN)NC(=O)[C@H](C)NC(=O)[C@H](CC(C)C)NC(=O)[C@@H](N)CCCCN)C(=O)N[C@@H](C)C(N)=O [1,4-Hept, KLAKGLAKWAKGLAKLAKGLA-NH2] (H-KLAKGLAKWAKGLAKLAKGLA-NH2; N-terminus assumed)	relatively low MIC values	–	–
8 (≈ 3.75 µM)	16 (≈ 7.49 µM)	4 (≈ 1.87 µM)	–	CC(C)C[C@H](NC(=O)[C@H](CCCCN)NC(=O)CNC(=O)[C@H](C)NC(=O)[C@H](CC(C)C)NC(=O)[C@H](CCCCN)NC(=O)[C@H](C)NC(=O)[C@H](CC(C)C)NC(=O)[C@H](CCCCN)NC(=O)CNC(=O)[C@H](C)NC(=O)[C@H](Cc1c[nH]c2ccccc12)NC(=O)[C@H](CCCCN)NC(=O)[C@H](C)NC(=O)[C@H](CC(C)C)NC(=O)[C@H](CCCCN)NC(=O)CNC(=O)[C@H](C)NC(=O)[C@H](CC(C)C)NC(=O)[C@@H](N)CCCCN)C(=O)N[C@@H](C)C(N)=O [1,5-Hept, KLAGKLAKWAGKLAKLAGKLA-NH2] (H-KLAGKLAKWAGKLAKLAGKLA-NH2; N-terminus assumed)	relatively low MIC values	–	–
>256	>256	>256	–	CC(C)C[C@H](NC(=O)CNC(=O)[C@H](C)NC(=O)[C@H](CC(C)C)NC(=O)[C@H](CCCCN)NC(=O)[C@H](C)NC(=O)[C@H](CCCCN)NC(=O)[C@H](CC(C)C)NC(=O)CNC(=O)[C@H](C)NC(=O)[C@H](Cc1c[nH]c2ccccc12)NC(=O)[C@H](CCCCN)NC(=O)[C@H](C)NC(=O)[C@H](CCCCN)NC(=O)[C@H](CC(C)C)NC(=O)CNC(=O)[C@H](C)NC(=O)[C@H](CC(C)C)NC(=O)[C@@H](N)CCCCN)C(=O)N[C@@H](CCCCN)C(=O)N[C@@H](C)C(N)=O [1,6-Hept, KLAGLKAKWAGLKAKLAGLKA-NH2] (H-KLAGLKAKWAGLKAKLAGLKA-NH2; N-terminus assumed)	devoid of antimicrobial activity	–	–
8 (≈ 3.75 µM)	16 (≈ 7.49 µM)	16 (≈ 7.49 µM)	–	CC(C)C[C@H](NC(=O)CNC(=O)[C@H](C)NC(=O)[C@H](CC(C)C)NC(=O)[C@H](CCCCN)NC(=O)[C@H](CCCCN)NC(=O)[C@H](C)NC(=O)[C@H](CC(C)C)NC(=O)CNC(=O)[C@H](C)NC(=O)[C@H](Cc1c[nH]c2ccccc12)NC(=O)[C@H](CCCCN)NC(=O)[C@H](CCCCN)NC(=O)[C@H](C)NC(=O)[C@H](CC(C)C)NC(=O)CNC(=O)[C@H](C)NC(=O)[C@H](CC(C)C)NC(=O)[C@@H](N)CCCCN)C(=O)N[C@@H](C)C(=O)N[C@@H](CCCCN)C(N)=O [1,7-Hept, KLAGLAKKWAGLAKKLAGLAK-NH2] (H-KLAGLAKKWAGLAKKLAGLAK-NH2; N-terminus assumed)	relatively low MIC values	–	–
32 (≈ 18 µM)	16 (≈ 8.99 µM)	16 (≈ 8.99 µM)	4 to 16	CC(C)C[C@H](NC(=O)[C@H](CCCCN)NC(=O)[C@H](CC(C)C)NC(=O)[C@H](CCCCN)NC(=O)[C@H](CC(C)C)NC(=O)[C@H](CCCCN)NC(=O)[C@H](Cc1c[nH]c2ccccc12)NC(=O)[C@H](CCCCN)NC(=O)[C@H](CC(C)C)NC(=O)[C@H](CCCCN)NC(=O)[C@H](CC(C)C)NC(=O)[C@H](CCCCN)NC(=O)[C@H](CC(C)C)NC(=O)[C@@H](N)CCCCN)C(N)=O [KL-14, K L K L K L K W K L K L K L-NH2] (H-KLKLKLKWKLKLKL-NH2; N-terminus assumed)	–	highly effective	quite lytic
64 (≈ 28.3 µM)	32 (≈ 14.1 µM)	16 (≈ 7.07 µM)	4 to 16	CC(C)C[C@H](NC(=O)[C@H](CCCCN)NC(=O)[C@H](CC(C)C)NC(=O)[C@H](CCCCN)NC(=O)[C@H](CC(C)C)NC(=O)[C@H](CCCCN)NC(=O)[C@H](CC(C)C)NC(=O)[C@H](CCCCN)NC(=O)[C@H](CC(C)C)NC(=O)[C@H](CCCCN)NC(=O)[C@H](Cc1c[nH]c2ccccc12)NC(=O)[C@H](CCCCN)NC(=O)[C@H](CC(C)C)NC(=O)[C@H](CCCCN)NC(=O)[C@H](CC(C)C)NC(=O)[C@H](CCCCN)NC(=O)[C@H](CC(C)C)NC(=O)[C@@H](N)CCCCN)C(N)=O [KL-18, K L K L K L K W K L K L K L K L K L-NH2] (H-KLKLKLKWKLKLKLKLKL-NH2; N-terminus assumed)	–	highly effective	most potent; also recorded: quite lytic
16 (≈ 10.3 µM)	8 (≈ 5.16 µM)	4 (≈ 2.58 µM)	–	CCCCCCCC(=O)N[C@@H](CCCCN)C(=O)N[C@@H](CC(C)C)C(=O)N[C@@H](CCCCN)C(=O)N[C@@H](Cc1c[nH]c2ccccc12)C(=O)N[C@@H](CCCCN)C(=O)N[C@@H](CC(C)C)C(=O)N[C@@H](CCCCN)C(=O)N[C@@H](CC(C)C)C(=O)N[C@@H](CCCCN)C(=O)N[C@@H](CC(C)C)C(=O)N[C@@H](CCCCN)C(N)=O [Oct-Beta-11, Oct- K L K W K L K L K L K-NH2] (Octanoyl-KLKWKLKLKLK-NH2)	reasonable antimicrobial activity	–	–
>256	>256	>256	–	CCCCCCCC(=O)N[C@@H](CCCCN)C(=O)N[C@@H](Cc1c[nH]c2ccccc12)C(=O)NCC(=O)N[C@@H](C)C(=O)N[C@@H](CCCCN)C(=O)N[C@H](C(N)=O)[C@@H](C)CC [Oct-KIGAKI-6, Oct- K W G A K I-NH2] (Octanoyl-KWGAKI-NH2)	no activity	–	–
